The values below come from patent US6805816B1, “Method of producing π-conjugated polymers” (Bayer Aktiengesellschaft, priority 1999, dated 2004).

The structures appear in SMILES notation. Values after ≈ are worked out from the molar mass of the structure shown.

One data set is described as follows: physchem. The text has this: The cyclodextrin employed was in each case 2,6-dimethyl-β-cyclodextrin.
A short description of data set [1]: Stability: discoloration in air. As to conditions: Monomer alone; in air after only a few hours.

For the compound `c1scc2c1OCCO2` [EDT, 3,4-ethylenedioxythiophene], the “increase of water solubility” value in the data set “physchem” was “more than 30 fold”. This compound came in with a solubility in “physchem” (20 °C, water) of 2100 µg/mL (≈ 14.8 mM).

Take `c1cc[nH]c1` [Pyrrole, pyrrole]: the Stability entry in data set [1] is “Pyrrole: discoloration”.
